Experimental data as given in article PMC6238727 (2018).
“Also recorded” adds a separate entry of the source. One block for each substance: values may come before it.

How the values were obtained:
Thrombin [1] = test: Recombinant human Thrombin at 5U/ml
Neutrophil elastase = Neutrophil elastase at 30 nM; settings: human, up to 12 min
[2] = healthy (homogenised) human lung tissue
MMP = test: incubation with MMP (which MMP is not given); settings: up to 10 min
[3] = human tissue homogenate (healthy and fibrotic lung tissue)
plasmin [4] = test: plasmin
MMP-13 [5] = test: Recombinant human catalytic domain MMP-13 at 30nM
MMP-2 [6] = test: Recombinant human catalytic domain MMP-2 at 30nM
Plasmin [7] = test: Plasmin (Sigma Aldrich) (30 nM) in MMP buffer; settings: up to 60 min
[8] = excised human carotid (atherosclerotic) plaque, sliced in half lengthwise, in a well with probe solution; settings: up to 60 min
[9] = lavage fluid collected from the LPS murine model
MMP-9 + Thrombin = MMP-9 + Thrombin together in MMP buffer; settings: human, up to 60 min
MMP-2 [10] = test: recombinant MMP enzymes (active domains), 30 nM, in MMP buffer; settings: up to 60 min
MMP-13 [11] = test: as above; settings: up to 60 min
[12] = platelet rich plasma (PRP) collected from the LPS murine model
MMP-9 = test: recombinant MMP enzymes (active domains), 30 nM, in MMP buffer; settings: human, up to 60 min
thrombin [13] = test: thrombin (Sigma Aldrich) (5 U ml^–1) in MMP buffer (10 mM CaCl2, Tris-HCl, NaCl, pH 7.5); settings: human, up to 60 min
Factor Xa = Factor Xa (Sigma Aldrich) (500 nM) in MMP buffer; settings: up to 60 min

not cleaved (Neutrophil elastase): remained intact
Substance: -P-Cha-G-M-F-G-
not cleaved (Thrombin [1]): Thrombin did not cleave any of the sequences

not cleaved (Neutrophil elastase): remained intact
Substance: -P-Cha-G-M-H-G-
not cleaved (Thrombin [1]): Thrombin did not cleave any of the sequences

Substance: PFGNleKA attached to the hydrophilic tail -[PEG2-(D)K]3-NH2
not cleaved [2]: good solubility and stability as confirmed by MALDI TOF MS and HPLC analysis

not cleaved (Neutrophil elastase): remained intact
Substance: -P-F-G-M-K-ßA-
not cleaved (Thrombin [1]): Thrombin did not cleave any of the sequences

not cleaved (Neutrophil elastase): remained intact
Substance: -P-F-G-L-K-ßA-
not cleaved (Thrombin [1]): Thrombin did not cleave any of the sequences

not cleaved (Neutrophil elastase): remained intact
Substance: -P-Cha-G-M-Y-G-
not cleaved (Thrombin [1]): Thrombin did not cleave any of the sequences

not cleaved (Neutrophil elastase): remained intact
Substance: -P-Cha-G-M-Y(Me)-G-
not cleaved (Thrombin [1]): Thrombin did not cleave any of the sequences

not cleaved (MMP): not activated by their target enzymes
Substance: –NleWPRGWR(D)L– | –PFG(D)NleKβA– | –K-PEG2–

not cleaved (Neutrophil elastase): remained intact
Substance: -P-Cha-G-M-K-ßA-G-
not cleaved (Thrombin [1]): Thrombin did not cleave any of the sequences

cleaved bond [3]: G-L
cleaved bond (plasmin [4]): K-G
not cleaved (neutrophil lysate): not cleaved with Neutrophil lysate
not cleaved (Thrombin [1]): not cleaved with Thrombin
not cleaved (Neutrophil elastase): stable to Elastase
cleaved bond (MMP-13 [5]): G-L
cleaved bond (MMP-2 [6]): G-L
Substance: -G-P-K-G-L-K-G-

cleaved bond (Neutrophil elastase): I-K
Substance: -P-F-G-Ile-K-ßA-
not cleaved (Thrombin [1]): Thrombin did not cleave any of the sequences

cleaved bond (Neutrophil elastase): I-K
Substance: -G-P-K-G-Ile-K-G-
not cleaved (Thrombin [1]): Thrombin did not cleave any of the sequences

cleaved bond [3]: G-Nle
not cleaved (plasmin [4]): totally plasmin resistant
not cleaved (neutrophil lysate): not cleaved with Neutrophil lysate
not cleaved (Thrombin [1]): not cleaved with Thrombin
not cleaved (Neutrophil elastase): stable to Elastase
cleaved bond (MMP-13 [5]): G-Nle
cleaved bond (MMP-2 [6]): G-Nle
Substance: -P-F-G-Nle-K-ßA-

cleaved bond [8]: Arg-Gly; also recorded: Gly-Nle
cleaved bond (MMP-9 + Thrombin): Arg-Gly; also recorded: Gly-Nle
cleaved bond (MMP-2 [10]): Gly-Nle
cleaved bond (MMP-13 [11]): Gly-Nle
cleaved bond (MMP-9): Gly-Nle
cleaved bond (thrombin [13]): Arg-Gly
Substance: –NleWPRGWR(D)L– | –PFGNleKβA– | –K-PEG2–
not cleaved (Plasmin [7]): completely plasmin and Factor Xa resistant
not cleaved [9]: not cleaved by murine proteolytic (MMP and Thrombin) enzymes
not cleaved [12]: not cleaved by murine proteolytic (MMP and Thrombin) enzymes
not cleaved (Factor Xa): completely plasmin and Factor Xa resistant

not cleaved (Neutrophil elastase): remained intact
Substance: -P-Cha-G-M-K-G-
not cleaved (Thrombin [1]): Thrombin did not cleave any of the sequences

not cleaved (thrombin [13]): not activated by their target enzymes
Substance: –NleWP(D)RGWR(D)L– | –PFGNleKβA– | –K-PEG2–

not cleaved (Neutrophil elastase): remained intact
Substance: -P-Cha-G-M-W-G-
not cleaved (Thrombin [1]): Thrombin did not cleave any of the sequences
